# Measured values from patent US8097635B2, “Insulin resistance improving agent” (Kyowa Hakko Bio Co., Ltd., priority 2006, dated 2012).
# Assays:
# Type in all cases: in vivo
# [1] = test system: BKS. Cg-+Lepr^db/+Lepr^db/JcI mice (type II diabetes model mice); test: Glucose tolerance test, Test Example 1; details: for Blood glucose level: glucose tolerance test day 29, glucose 2 g/kg orally after 18 h fasting, 10 mL/kg orally once a day
# Excerpt: (§1) Twenty seven (27) BKS. Cg-+Lepr^db/+Lepr^db/JcI mice (Clea Japan Inc., female, 7 week old), which were type II diabetes model mice expressing the symptoms of hyperinsulinemia due to insulin resistance, were divided into 3 groups each consisting of 9 mice. The groups were designated as group 1, group 2, and group 3. Mice of the groups 1 to 3 were fed with free access to pellets CE-2 (Clea Japan Inc.; hereinafter referred to as “CE-2”) for feeding mice and rats. To the mice of group 1, 0.5 w/v % methyl cellulose (0.5 w/v % methyl cellulose 400 cP solution, sterilized, produced by Wako Pure Chemical Industries, Ltd. for biochemistry; hereinafter referred to as “0.5% MC”) was administered orally once a day (10 mL/kg). To the mice of group 2, a pyrroloquinoline quinone disodium salt (hereinafter referred to as “PQQ disodium salt,” produced by Mitsubishi Gas Chemical Company, Inc.) suspended in 0.5% MC to a concentration of 0.5 mg/mL was administered orally once a day (10 mL/kg). To the mice of group 3, a PQQ disodium salt suspended in 0.5% MC to a concentration of 2 mg/mL was administered orally once a day (10 mL/kg). Blood was collected from the orbital veins on day 14 and day 28 after the initiation of the test, and thus serum was obtained. Nonfasting blood serum glucose levels and nonfasting serum insulin concentrations were separately measured using a glucose C-II Test Wako (produced by Wako Pure Chemical Industries, Ltd.) and a Mouse Insulin ELISA Kit (S-type) (produced by Shibayagi Co., Ltd.), respectively. After 18 hours of fasting from day 28 to day 29 after the initiation of the test, a 40% (w/v) glucose aqueous solution was administered orally to each mouse at 2 g/kg B.W., so as to load the mice with glucose (to test the glucose tolerance). Blood was collected from tail veins at the time of administration of a glucose aqueous solution (0 minute) and then at a certain time point after administration (120 minutes). Blood glucose levels were measured using a Medisafe Reader GR-101 (produced by Terumo Corporation). […] Blood serum glucose levels and serum insulin concentrations were separately measured using a glucose C-II Test Wako and a Mouse Insulin ELISA Kit (S-type), respectively. The results were expressed as average levels±standard deviation (n=9). Statistical significance levels (p-values) were found by a t-test (group 1 with respect to group 2; and group 1 with respect to group 3).
# [2] = test system: BKS. Cg-+Lepr^db/+Lepr^db/JcI mice (type II diabetes model mice); test: Nonfasting serum insulin concentration, Test Example 1; details: for Serum insulin concentration: non-fasting, 10 mL/kg orally once a day
# Excerpt: as §1
# [3] = Body weight of type II diabetes model mice, Test Example 1; details: for Body weight: 10 mL/kg orally once a day
# Excerpt: Twenty seven (27) BKS. Cg-+Lepr^db/+Lepr^db/JcI mice (Clea Japan Inc., female, 7 week old), which were type II diabetes model mice expressing the symptoms of hyperinsulinemia due to insulin resistance, were divided into 3 groups each consisting of 9 mice. The groups were designated as group 1, group 2, and group 3.
# Mice of the groups 1 to 3 were fed with free access to pellets CE-2 (Clea Japan Inc.; hereinafter referred to as “CE-2”) for feeding mice and rats. To the mice of group 1, 0.5 w/v % methyl cellulose (0.5 w/v % methyl cellulose 400 cP solution, sterilized, produced by Wako Pure Chemical Industries, Ltd. for biochemistry; hereinafter referred to as “0.5% MC”) was administered orally once a day (10 mL/kg). To the mice of group 2, a pyrroloquinoline quinone disodium salt (hereinafter referred to as “PQQ disodium salt,” produced by Mitsubishi Gas Chemical Company, Inc.) suspended in 0.5% MC to a concentration of 0.5 mg/mL was administered orally once a day (10 mL/kg). To the mice of group 3, a PQQ disodium salt suspended in 0.5% MC to a concentration of 2 mg/mL was administered orally once a day (10 mL/kg).
# [4] = test system: BKS. Cg-+Lepr^db/+Lepr^db/JcI mice (type II diabetes model mice); test: Fasting blood serum glucose level on day 32, Test Example 1; details: for Blood glucose level: fasting, day 32 after initiation of test, 10 mL/kg orally once a day; for Fasting blood glucose levels compared with group 1 (0.5% MC): day 32
# Excerpt: as §1
# [5] = test system: type II diabetes model KK-AY/Ta JcI mice; test: Glucose tolerance test, Test Example 2; details: for Blood glucose level: glucose tolerance test day 15, glucose 1 g/kg orally after 18 h fasting, 10 mL/kg orally once a day; for Blood glucose levels in glucose tolerance test compared with group 1 (0.5% MC): 30, 60 and 120 minutes after glucose
# Experimental: Eighteen type II diabetes model KK-AY/Ta JcI mice (Clea Japan Inc., male, 6 week old) were divided into 3 groups (6 mice in group 1, 7 mice in group 2, and 5 mice in group 3). The groups were designated as group 1, group 2, and group 3, respectively. Mice of the groups 1 to 3 were fed with free access to pellets CE-2 for feeding mice and rats. To the mice of group 1, 0.5% MC was administered orally once a day (10 mL/kg). To the mice of group 2, a PQQ disodium salt suspended in 0.5% MC to a concentration of 0.5 mg/mL was administered orally once a day (10 mL/kg). To the mice of group 3, a PQQ disodium salt suspended in 0.5% MC to a concentration of 2 mg/mL was administered orally once a day (10 mL/kg). After 18 hours of fasting from day 14 to day 15 after the initiation of the test, a 10% (w/v) glucose aqueous solution was administered orally to each mouse at 1 g/kg B.W., so as to load the mice with glucose to test the glucose tolerance. Blood was collected from tail veins at 0 minutes, 30 minutes, 60 minutes, and 120 minutes after administration of the glucose aqueous solution. Blood glucose levels were measured using a Medisafe Reader GR-101 (produced by Terumo Corporation). […] Blood glucose levels were expressed as average levels±standard deviation (n=5-7) and statistical significance levels (p-values) were found by a t-test (group 1 with respect to group 2; and group 1 with respect to group 3).
# [6] = test system: BKS. Cg-+Lepr^db/+Lepr^db/JcI mice (type II diabetes model mice); test: Fasting serum insulin concentration on day 32, Test Example 1; details: for Insulin concentration: day 32 after initiation of test, 10 mL/kg orally once a day
# Excerpt: Twenty seven (27) BKS. Cg-+Lepr^db/+Lepr^db/JcI mice (Clea Japan Inc., female, 7 week old), which were type II diabetes model mice expressing the symptoms of hyperinsulinemia due to insulin resistance, were divided into 3 groups each consisting of 9 mice. The groups were designated as group 1, group 2, and group 3. Mice of the groups 1 to 3 were fed with free access to pellets CE-2 (Clea Japan Inc.; hereinafter referred to as “CE-2”) for feeding mice and rats. To the mice of group 1, 0.5 w/v % methyl cellulose (0.5 w/v % methyl cellulose 400 cP solution, sterilized, produced by Wako Pure Chemical Industries, Ltd. for biochemistry; hereinafter referred to as “0.5% MC”) was administered orally once a day (10 mL/kg). To the mice of group 2, a pyrroloquinoline quinone disodium salt (hereinafter referred to as “PQQ disodium salt,” produced by Mitsubishi Gas Chemical Company, Inc.) suspended in 0.5% MC to a concentration of 0.5 mg/mL was administered orally once a day (10 mL/kg). To the mice of group 3, a PQQ disodium salt suspended in 0.5% MC to a concentration of 2 mg/mL was administered orally once a day (10 mL/kg). Blood was collected from the orbital veins on day 14 and day 28 after the initiation of the test, and thus serum was obtained. Nonfasting blood serum glucose levels and nonfasting serum insulin concentrations were separately measured using a glucose C-II Test Wako (produced by Wako Pure Chemical Industries, Ltd.) and a Mouse Insulin ELISA Kit (S-type) (produced by Shibayagi Co., Ltd.), respectively. […] Blood glucose levels were measured using a Medisafe Reader GR-101 (produced by Terumo Corporation). […] Blood serum glucose levels and serum insulin concentrations were separately measured using a glucose C-II Test Wako and a Mouse Insulin ELISA Kit (S-type), respectively. The results were expressed as average levels±standard deviation (n=9). […]
# [7] = test system: BKS. Cg-+Lepr^db/+Lepr^db/JcI mice (type II diabetes model mice); test: Test Example 1 overall conclusion (insulin resistance, type II diabetes, body weight); details: Test Example 1, oral once a day for about 32 days
# Excerpt: Twenty seven (27) BKS. Cg-+Lepr^db/+Lepr^db/JcI mice (Clea Japan Inc., female, 7 week old), which were type II diabetes model mice expressing the symptoms of hyperinsulinemia due to insulin resistance, were divided into 3 groups each consisting of 9 mice. The groups were designated as group 1, group 2, and group 3. Mice of the groups 1 to 3 were fed with free access to pellets CE-2 (Clea Japan Inc.; hereinafter referred to as “CE-2”) for feeding mice and rats. To the mice of group 1, 0.5 w/v % methyl cellulose (0.5 w/v % methyl cellulose 400 cP solution, sterilized, produced by Wako Pure Chemical Industries, Ltd. for biochemistry; hereinafter referred to as “0.5% MC”) was administered orally once a day (10 mL/kg). […] Nonfasting blood serum glucose levels and nonfasting serum insulin concentrations were separately measured using a glucose C-II Test Wako (produced by Wako Pure Chemical Industries, Ltd.) and a Mouse Insulin ELISA Kit (S-type) (produced by Shibayagi Co., Ltd.), respectively. […] Blood glucose levels were measured using a Medisafe Reader GR-101 (produced by Terumo Corporation). […] Blood serum glucose levels and serum insulin concentrations were separately measured using a glucose C-II Test Wako and a Mouse Insulin ELISA Kit (S-type), respectively. The results were expressed as average levels±standard deviation (n=9). […]
# [8] = test system: BKS. Cg-+Lepr^db/+Lepr^db/JcI mice (type II diabetes model mice); test: Nonfasting blood serum glucose level, Test Example 1; details: for Blood glucose level: non-fasting, 10 mL/kg orally once a day
# Excerpt: as §1
# [9] = group 2: 0.5 mg/mL, day 14 after initiation of test
# [10] = group 2: 0.5 mg/mL, day 28 after initiation of test
# [11] = group 3: 2 mg/mL, day 14 after initiation of test
# [12] = group 3: 2 mg/mL, day 28 after initiation of test
# [13] = group 2 (0.5 mg/mL, 10 mL/kg orally once a day)
# [14] = group 3 (2 mg/mL, 10 mL/kg orally once a day)
smiles,measurement,setting,value
"O=C(O)c1cc(C(=O)O)c2c(n1)C(=O)C(=O)c1cc(C(=O)O)[nH]c1-2.[Na].[Na] [PQQ disodium salt, pyrroloquinoline quinone disodium salt]",Blood glucose level,"[1]; group 2: 0.5 mg/mL, 0 minute",281.3 ± 16.3 mg/dL
same,Blood glucose level,"[1]; group 2: 0.5 mg/mL, 120 minutes",522.0 ± 22.9 mg/dL
same,Blood glucose level,"[1]; group 3: 2 mg/mL, 0 minute",303.4 ± 25.9 mg/dL
same,Blood glucose level,"[1]; group 3: 2 mg/mL, 120 minutes",489.3 ± 47.5 mg/dL
same,Blood glucose levels in glucose tolerance test compared with group 1 (0.5% MC),"[1]; groups 2 and 3 (0.5 and 2 mg/mL, 10 mL/kg orally once a day), 120 minutes after glucose",lower than those of group 1
same,Serum insulin concentrations compared with group 1 (0.5% MC),"[2]; groups 2 and 3 (0.5 and 2 mg/mL, 10 mL/kg orally once a day), day 14 and 28",lower than those of group 1
same,Serum insulin concentration,[2]; [9],4.02 ± 0.75 ng/mL
same,Serum insulin concentration,[2]; [10],3.02 ± 0.47 ng/mL
same,Serum insulin concentration,[2]; [11],6.23 ± 1.69 ng/mL
same,Serum insulin concentration,[2]; [12],4.82 ± 1.81 ng/mL
same,Body weight,"[3]; group 2: 0.5 mg/mL in 0.5% MC, day 0 (test initiated)",29.90 ± 0.37 g
same,Body weight,"[3]; group 2: 0.5 mg/mL in 0.5% MC, day 31",37.18 ± 0.65 g
same,Body weight,"[3]; group 3: 2 mg/mL in 0.5% MC, day 0 (test initiated)",29.93 ± 0.51 g
same,Body weight,"[3]; group 3: 2 mg/mL in 0.5% MC, day 31",39.01 ± 1.07 g
same,Body weights compared with group 1 (0.5% MC),"[3]; groups 2 and 3 (0.5 and 2 mg/mL, 10 mL/kg orally once a day), after completion of the test",almost the same as those of group 1
same,Blood glucose level,[4]; group 2: 0.5 mg/mL,617.7 ± 39.1 mg/dL
same,Blood glucose level,"[4]; group 3: 2 mg/mL, *p < 0.05 with respect to group 1",575.6 ± 33.3* mg/dl
same,Fasting blood glucose levels compared with group 1 (0.5% MC),[4]; [13],lower than those of group 1
same,Fasting blood glucose levels compared with group 1 (0.5% MC),[4]; [14],significantly lower than those of group 1
same,Overall effect on type II diabetes,"[5]; Test Example 2, model mice with a gene mutation differing from test example 1",exerts a therapeutic effect on type II diabetes
same,Blood glucose level,"[5]; group 2: 0.5 mg/mL, 0 minutes",116.7 ± 10.1 mg/dL
same,Blood glucose level,"[5]; group 2: 0.5 mg/mL, 30 minutes, ***p < 0.001 with respect to group 1",274.9 ± 8.4*** mg/dl
same,Blood glucose level,"[5]; group 2: 0.5 mg/mL, 60 minutes, *p < 0.05 with respect to group 1",264.6 ± 7.6* mg/dl
same,Blood glucose level,"[5]; group 2: 0.5 mg/mL, 120 minutes, **p < 0.01 with respect to group 1",184.3 ± 7.8** mg/dl
same,Blood glucose level,"[5]; group 3: 2 mg/mL, 0 minutes",117.0 ± 12.2 mg/dL
same,Blood glucose level,"[5]; group 3: 2 mg/mL, 30 minutes",300.0 ± 24.1 mg/dL
same,Blood glucose level,"[5]; group 3: 2 mg/mL, 60 minutes",261.6 ± 25.6 mg/dL
same,Blood glucose level,"[5]; group 3: 2 mg/mL, 120 minutes",187.4 ± 20.3 mg/dL
same,Blood glucose levels in glucose tolerance test compared with group 1 (0.5% MC),[5]; [13],significantly lower than those of group 1
same,Blood glucose levels in glucose tolerance test compared with group 1 (0.5% MC),[5]; [14],lower than those of group 1
same,Insulin concentration,[6]; group 2: 0.5 mg/mL,4.88 ± 0.75 ng/mL
same,Insulin concentration,[6]; group 3: 2 mg/mL,4.4 ± 0.66 ng/mL
same,Serum insulin concentrations compared with group 1 (0.5% MC),"[6]; groups 2 and 3 (0.5 and 2 mg/mL, 10 mL/kg orally once a day), day 32",lower than those of group 1
same,"Overall effect on insulin resistance, type II diabetes and body weight",[7],exerts an effect of improving insulin resistance and a therapeutic effect on type II diabetes without body weight gain
same,Non-fasting blood glucose levels compared with group 1 (0.5% MC),"[8]; groups 2 and 3 (0.5 and 2 mg/mL, 10 mL/kg orally once a day), day 14 and day 28",lower than those of group 1
same,Blood glucose level,[8]; [9],427.7 ± 11.4 mg/dL
same,Blood glucose level,[8]; [10],531.5 ± 12.3 mg/dL
same,Blood glucose level,[8]; [11],405.7 ± 24.1 mg/dL
same,Blood glucose level,[8]; [12],546.1 ± 26.0 mg/dL
